{
  "source": "paper doi:10.1101/2024.08.19.608619",
  "about": "“Discovery of potent SARS-CoV-2 nsp3 macrodomain inhibitors uncovers lack of translation to cellular antiviral response” (bioRxiv, 2024)",
  "test_in_all_cases": "biochemical",
  "set-up_in_all_cases": "In vitro kinase panel profiling, per cent remaining kinase activity at 10 uM",
  "key": {"Rsk1(h)": {"molecular_target": "T1, Rsk1(h) (Homo sapiens, UniProt Q15418)", "T1 construct": "gene RPS6KA1", "T1 sequence (Q15418 whole entry)": "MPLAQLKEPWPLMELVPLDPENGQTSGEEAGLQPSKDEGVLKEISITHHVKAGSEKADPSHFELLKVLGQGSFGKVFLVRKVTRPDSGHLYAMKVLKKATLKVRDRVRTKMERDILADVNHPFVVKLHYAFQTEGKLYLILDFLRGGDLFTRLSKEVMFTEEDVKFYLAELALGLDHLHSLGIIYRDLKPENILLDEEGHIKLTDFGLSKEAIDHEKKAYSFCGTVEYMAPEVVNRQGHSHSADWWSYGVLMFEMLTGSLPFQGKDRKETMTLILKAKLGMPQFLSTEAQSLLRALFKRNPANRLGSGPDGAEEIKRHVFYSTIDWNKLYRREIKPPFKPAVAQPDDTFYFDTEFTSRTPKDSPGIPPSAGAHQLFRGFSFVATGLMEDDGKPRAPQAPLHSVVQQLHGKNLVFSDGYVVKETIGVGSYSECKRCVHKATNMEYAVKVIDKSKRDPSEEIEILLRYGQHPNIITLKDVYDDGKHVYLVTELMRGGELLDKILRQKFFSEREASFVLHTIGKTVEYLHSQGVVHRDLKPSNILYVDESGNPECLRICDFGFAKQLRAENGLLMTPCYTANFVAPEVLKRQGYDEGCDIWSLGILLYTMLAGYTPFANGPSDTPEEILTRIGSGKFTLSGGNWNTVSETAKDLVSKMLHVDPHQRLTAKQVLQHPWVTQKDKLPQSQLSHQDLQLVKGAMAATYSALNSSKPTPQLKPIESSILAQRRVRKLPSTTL", "settings": "atp_concentration=45, read-out: % of control remaining", "description": "(§1) We derisk potential for off-target activity by profiling the compound in a CEREP panel, a standard secondary pharmacology assessment, as well as a kinase panel to derisk a potential hinge-binding motif in our leads, and a PARP panel to derisk activity against human […]. Reassuringly, the compounds are selective, with the only off-targets being moderate human CHRM2 and KOR receptors activity associated with ASAP-0011198."}, "JAK2(h)": {"molecular_target": "JAK2(h) (Homo sapiens, UniProt O60674)", "sequence (O60674 whole entry)": "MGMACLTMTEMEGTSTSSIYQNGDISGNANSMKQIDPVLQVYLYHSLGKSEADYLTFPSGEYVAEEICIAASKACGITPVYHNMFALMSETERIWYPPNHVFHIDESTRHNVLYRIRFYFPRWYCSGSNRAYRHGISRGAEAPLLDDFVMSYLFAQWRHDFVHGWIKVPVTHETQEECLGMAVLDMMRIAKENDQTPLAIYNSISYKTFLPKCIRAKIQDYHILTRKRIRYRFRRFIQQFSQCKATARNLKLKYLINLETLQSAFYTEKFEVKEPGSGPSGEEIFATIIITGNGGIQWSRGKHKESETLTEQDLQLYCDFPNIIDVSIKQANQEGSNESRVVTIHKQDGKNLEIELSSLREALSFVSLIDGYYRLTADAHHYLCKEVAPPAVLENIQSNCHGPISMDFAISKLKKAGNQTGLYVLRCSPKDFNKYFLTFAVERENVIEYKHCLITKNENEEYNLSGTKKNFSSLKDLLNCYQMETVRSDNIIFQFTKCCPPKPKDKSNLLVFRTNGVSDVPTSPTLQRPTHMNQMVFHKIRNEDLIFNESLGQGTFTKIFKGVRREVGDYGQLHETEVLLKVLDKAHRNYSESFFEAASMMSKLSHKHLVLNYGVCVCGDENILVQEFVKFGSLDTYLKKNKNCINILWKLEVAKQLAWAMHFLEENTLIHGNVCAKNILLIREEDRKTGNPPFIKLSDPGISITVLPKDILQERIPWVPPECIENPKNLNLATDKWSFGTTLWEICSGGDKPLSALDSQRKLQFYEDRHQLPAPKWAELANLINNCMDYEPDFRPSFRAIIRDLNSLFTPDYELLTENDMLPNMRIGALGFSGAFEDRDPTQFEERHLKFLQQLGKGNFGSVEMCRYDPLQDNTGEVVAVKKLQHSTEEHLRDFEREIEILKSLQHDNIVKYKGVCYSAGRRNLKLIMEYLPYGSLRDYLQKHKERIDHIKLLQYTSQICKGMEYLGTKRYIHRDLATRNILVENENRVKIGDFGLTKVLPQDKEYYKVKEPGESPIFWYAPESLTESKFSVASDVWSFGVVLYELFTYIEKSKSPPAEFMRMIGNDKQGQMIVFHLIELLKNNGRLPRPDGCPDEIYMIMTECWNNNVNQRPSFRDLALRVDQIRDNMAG", "settings": "atp_concentration=45, read-out: % of control remaining", "description": "as §1"}, "Rse(h)": {"molecular_target": "T2, Rse(h) (Homo sapiens, UniProt Q06418)", "T2 construct": "gene TYRO3", "T2 sequence (Q06418 1-890)": "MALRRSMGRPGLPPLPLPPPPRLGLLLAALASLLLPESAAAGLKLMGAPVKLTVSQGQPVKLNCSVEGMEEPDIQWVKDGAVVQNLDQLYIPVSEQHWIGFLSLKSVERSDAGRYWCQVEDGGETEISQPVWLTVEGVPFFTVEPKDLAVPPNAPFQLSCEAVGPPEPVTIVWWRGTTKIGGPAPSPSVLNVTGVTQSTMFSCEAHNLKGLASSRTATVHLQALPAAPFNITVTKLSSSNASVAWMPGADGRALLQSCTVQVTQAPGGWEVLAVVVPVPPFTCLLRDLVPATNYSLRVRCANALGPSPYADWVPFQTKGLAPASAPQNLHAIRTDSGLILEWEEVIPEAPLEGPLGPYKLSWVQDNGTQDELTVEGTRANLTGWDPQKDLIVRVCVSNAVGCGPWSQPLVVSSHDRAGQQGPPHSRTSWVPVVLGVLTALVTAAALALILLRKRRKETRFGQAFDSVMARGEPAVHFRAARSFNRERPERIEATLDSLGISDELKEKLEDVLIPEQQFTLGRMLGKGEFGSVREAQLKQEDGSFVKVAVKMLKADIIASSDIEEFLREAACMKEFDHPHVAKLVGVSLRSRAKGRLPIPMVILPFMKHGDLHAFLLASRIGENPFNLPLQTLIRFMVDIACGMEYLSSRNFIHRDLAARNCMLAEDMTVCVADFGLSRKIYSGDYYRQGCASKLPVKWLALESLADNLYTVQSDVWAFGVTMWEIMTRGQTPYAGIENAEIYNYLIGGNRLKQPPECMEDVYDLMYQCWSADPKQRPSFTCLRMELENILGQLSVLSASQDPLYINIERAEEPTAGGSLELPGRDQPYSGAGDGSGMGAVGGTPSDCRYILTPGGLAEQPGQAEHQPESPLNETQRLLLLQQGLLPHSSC", "settings": "atp_concentration=45, read-out: % of control remaining", "description": "as §1"}, "ALK(h)": {"molecular_target": "ALK(h) (Homo sapiens, UniProt Q9UM73)", "sequence (Q9UM73 whole entry)": "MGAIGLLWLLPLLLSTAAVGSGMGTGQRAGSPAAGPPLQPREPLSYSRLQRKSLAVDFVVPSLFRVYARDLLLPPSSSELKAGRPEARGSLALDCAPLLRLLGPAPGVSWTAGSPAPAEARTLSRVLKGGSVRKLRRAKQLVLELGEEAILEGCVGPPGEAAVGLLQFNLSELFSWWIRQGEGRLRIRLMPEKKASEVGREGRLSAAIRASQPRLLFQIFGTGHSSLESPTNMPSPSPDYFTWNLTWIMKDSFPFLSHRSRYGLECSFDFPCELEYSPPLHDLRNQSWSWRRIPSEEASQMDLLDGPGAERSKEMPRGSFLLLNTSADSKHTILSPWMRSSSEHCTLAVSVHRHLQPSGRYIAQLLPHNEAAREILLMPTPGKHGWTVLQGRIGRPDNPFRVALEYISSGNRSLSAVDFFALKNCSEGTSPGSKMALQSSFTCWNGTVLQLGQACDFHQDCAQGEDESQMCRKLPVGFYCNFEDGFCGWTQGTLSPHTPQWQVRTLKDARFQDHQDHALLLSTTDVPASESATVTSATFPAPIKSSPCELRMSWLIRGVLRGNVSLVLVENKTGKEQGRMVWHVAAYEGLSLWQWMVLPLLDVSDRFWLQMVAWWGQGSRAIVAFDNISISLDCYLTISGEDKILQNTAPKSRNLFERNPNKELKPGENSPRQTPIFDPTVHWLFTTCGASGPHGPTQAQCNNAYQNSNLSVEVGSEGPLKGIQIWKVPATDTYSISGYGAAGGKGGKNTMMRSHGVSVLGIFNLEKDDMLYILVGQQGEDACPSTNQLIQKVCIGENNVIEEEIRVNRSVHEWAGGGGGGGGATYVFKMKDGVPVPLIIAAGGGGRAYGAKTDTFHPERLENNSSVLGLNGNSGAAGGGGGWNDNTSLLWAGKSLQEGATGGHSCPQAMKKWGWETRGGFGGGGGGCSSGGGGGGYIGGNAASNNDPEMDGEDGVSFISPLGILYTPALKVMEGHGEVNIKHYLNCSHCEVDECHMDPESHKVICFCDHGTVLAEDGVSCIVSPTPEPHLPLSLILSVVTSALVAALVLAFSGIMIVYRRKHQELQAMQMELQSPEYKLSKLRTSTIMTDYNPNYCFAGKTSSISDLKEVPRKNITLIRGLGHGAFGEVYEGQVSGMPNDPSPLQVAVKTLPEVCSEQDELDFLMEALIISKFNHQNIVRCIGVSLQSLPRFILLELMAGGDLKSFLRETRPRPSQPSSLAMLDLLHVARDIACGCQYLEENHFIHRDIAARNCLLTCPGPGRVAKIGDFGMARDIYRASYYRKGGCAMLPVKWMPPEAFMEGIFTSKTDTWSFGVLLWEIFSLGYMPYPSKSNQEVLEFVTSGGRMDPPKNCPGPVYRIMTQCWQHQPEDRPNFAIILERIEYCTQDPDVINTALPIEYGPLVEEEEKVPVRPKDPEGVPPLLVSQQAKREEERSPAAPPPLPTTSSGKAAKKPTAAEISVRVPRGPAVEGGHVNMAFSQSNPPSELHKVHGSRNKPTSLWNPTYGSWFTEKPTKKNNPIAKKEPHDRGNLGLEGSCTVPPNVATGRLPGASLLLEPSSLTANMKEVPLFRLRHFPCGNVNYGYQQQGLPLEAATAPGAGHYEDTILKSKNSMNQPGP", "settings": "atp_concentration=200, read-out: % of control remaining", "description": "as §1"}, "Abl(h)": {"molecular_target": "T3, Abl(h) (Homo sapiens, UniProt P00519)", "T3 construct": "gene ABL1", "settings": "atp_concentration=45, read-out: % of control remaining", "description": "as §1"}, "NEK2(h)": {"molecular_target": "T4, NEK2(h) (Homo sapiens, UniProt P51955)", "T4 sequence (P51955 1-445)": "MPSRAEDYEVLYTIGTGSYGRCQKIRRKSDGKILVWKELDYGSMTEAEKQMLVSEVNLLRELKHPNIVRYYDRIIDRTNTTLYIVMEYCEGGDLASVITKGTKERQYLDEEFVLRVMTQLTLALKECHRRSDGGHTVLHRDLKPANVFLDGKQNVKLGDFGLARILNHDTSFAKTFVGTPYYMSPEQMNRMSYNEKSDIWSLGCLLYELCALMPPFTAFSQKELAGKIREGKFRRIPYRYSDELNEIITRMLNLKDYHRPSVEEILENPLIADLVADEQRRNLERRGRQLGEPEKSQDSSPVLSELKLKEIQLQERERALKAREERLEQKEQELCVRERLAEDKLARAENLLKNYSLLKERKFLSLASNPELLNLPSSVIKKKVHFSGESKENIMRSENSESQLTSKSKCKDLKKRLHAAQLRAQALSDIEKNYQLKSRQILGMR", "settings": "atp_concentration=120, read-out: % of control remaining", "description": "as §1"}, "CDK9/cyclin T1(h)": {"molecular_target": "CDK9/cyclin T1(h) (Homo sapiens, UniProt P50750)", "sequence (P50750 whole entry)": "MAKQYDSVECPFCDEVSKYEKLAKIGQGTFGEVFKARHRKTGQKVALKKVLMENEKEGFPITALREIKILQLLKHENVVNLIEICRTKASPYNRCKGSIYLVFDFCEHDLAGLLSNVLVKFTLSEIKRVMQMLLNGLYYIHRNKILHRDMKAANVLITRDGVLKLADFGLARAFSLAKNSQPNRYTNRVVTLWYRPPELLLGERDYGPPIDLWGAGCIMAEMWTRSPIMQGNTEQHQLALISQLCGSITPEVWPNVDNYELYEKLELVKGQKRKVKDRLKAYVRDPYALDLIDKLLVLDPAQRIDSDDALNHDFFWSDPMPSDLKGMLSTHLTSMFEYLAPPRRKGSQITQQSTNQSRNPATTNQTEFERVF", "sequence (O60563 whole entry partner)": "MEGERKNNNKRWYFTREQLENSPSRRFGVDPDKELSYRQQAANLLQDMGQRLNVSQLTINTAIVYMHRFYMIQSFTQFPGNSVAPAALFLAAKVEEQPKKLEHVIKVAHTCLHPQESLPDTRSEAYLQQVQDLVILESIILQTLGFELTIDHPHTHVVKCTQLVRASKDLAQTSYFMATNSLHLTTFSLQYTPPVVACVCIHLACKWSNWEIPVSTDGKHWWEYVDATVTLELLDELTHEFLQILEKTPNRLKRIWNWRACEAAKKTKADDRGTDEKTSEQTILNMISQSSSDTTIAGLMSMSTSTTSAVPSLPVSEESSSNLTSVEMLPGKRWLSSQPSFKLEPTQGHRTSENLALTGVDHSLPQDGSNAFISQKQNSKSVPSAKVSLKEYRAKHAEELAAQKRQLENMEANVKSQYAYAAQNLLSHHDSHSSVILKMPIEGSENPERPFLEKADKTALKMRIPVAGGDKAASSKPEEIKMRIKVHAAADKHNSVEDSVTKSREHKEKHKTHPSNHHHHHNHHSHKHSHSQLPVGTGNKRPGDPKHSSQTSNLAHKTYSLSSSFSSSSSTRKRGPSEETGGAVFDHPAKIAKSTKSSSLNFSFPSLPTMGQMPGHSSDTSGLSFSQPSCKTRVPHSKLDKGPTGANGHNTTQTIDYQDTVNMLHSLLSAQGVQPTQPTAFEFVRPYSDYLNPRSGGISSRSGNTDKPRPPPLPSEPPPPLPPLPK", "settings": "atp_concentration=45, read-out: % of control remaining", "description": "as §1"}, "eEF-2K(h)": {"molecular_target": "T5, eEF-2K(h) (Homo sapiens, UniProt O00418)", "T5 construct": "gene EEF2K", "T5 sequence (O00418 1-725)": "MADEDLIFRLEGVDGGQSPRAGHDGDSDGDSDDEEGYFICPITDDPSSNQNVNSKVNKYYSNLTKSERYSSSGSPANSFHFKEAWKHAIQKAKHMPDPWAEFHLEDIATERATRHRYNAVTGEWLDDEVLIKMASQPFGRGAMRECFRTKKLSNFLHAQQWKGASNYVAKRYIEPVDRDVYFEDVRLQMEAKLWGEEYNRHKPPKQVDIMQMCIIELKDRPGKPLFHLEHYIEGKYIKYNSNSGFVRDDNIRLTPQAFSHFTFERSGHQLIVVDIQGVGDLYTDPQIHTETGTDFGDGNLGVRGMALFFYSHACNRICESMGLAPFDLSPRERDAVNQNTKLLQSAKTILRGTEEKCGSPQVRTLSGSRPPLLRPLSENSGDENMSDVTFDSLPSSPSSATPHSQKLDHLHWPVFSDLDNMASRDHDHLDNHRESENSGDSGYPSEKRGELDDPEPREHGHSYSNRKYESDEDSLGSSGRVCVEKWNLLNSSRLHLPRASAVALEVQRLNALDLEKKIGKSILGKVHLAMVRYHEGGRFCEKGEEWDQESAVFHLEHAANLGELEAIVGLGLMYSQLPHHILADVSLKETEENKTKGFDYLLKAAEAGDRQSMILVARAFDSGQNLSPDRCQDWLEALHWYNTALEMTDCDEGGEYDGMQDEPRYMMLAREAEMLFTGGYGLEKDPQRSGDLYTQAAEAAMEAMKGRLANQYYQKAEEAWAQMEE", "settings": "atp_concentration=15, read-out: % of control remaining", "description": "as §1"}},
  "note": "Like-named read-outs stand apart in the source and are kept apart here.",
  "data": [
    {"smiles": "Cn1ncc(-c2cc3c(N[C@@H](c4ccc5c(n4)OCCO5)C(C)(C)C)ncnc3[nH]2)c1C#N", "note": "[ASAP-0011221]", "values": [
      {"measurement": "remaining activity at 10 µM", "setting": "Rsk1(h); batch_name=ASAP-0011221-002", "result": 136, "unit": "%"},
      {"measurement": "remaining activity at 10 µM", "setting": "JAK2(h); batch_name=ASAP-0011221-002", "result": 140, "unit": "%"},
      {"measurement": "remaining activity at 10 µM", "setting": "Rse(h); batch_name=ASAP-0011221-002", "result": 110, "unit": "%"},
      {"measurement": "remaining activity at 10 µM", "setting": "ALK(h); batch_name=ASAP-0011221-002", "result": 117, "unit": "%"},
      {"measurement": "remaining activity at 10 µM", "setting": "Abl(h); batch_name=ASAP-0011221-002", "result": 81, "unit": "%"},
      {"measurement": "remaining activity at 10 µM", "setting": "NEK2(h); batch_name=ASAP-0011221-002", "result": 104, "unit": "%"},
      {"measurement": "remaining activity at 10 µM", "setting": "CDK9/cyclin T1(h); batch_name=ASAP-0011221-002", "result": 130, "unit": "%"},
      {"measurement": "remaining activity at 10 µM", "setting": "eEF-2K(h); batch_name=ASAP-0011221-002", "result": 124, "unit": "%"}
    ]},
    {"smiles": "Cc1nn(C)cc1-c1cc2c(NC(c3ccc4c(c3)S(=O)(=O)CCC4)C(C)C)ncnc2[nH]1", "note": "(centres unmarked) [ASAP-0011446]", "values": [
      {"measurement": "remaining activity at 10 µM", "setting": "Rsk1(h); batch_name=ASAP-0011446-002", "result": 110, "unit": "%"},
      {"measurement": "remaining activity at 10 µM", "setting": "JAK2(h); batch_name=ASAP-0011446-002", "result": 111, "unit": "%"},
      {"measurement": "remaining activity at 10 µM", "setting": "Rse(h); batch_name=ASAP-0011446-002", "result": 96, "unit": "%"},
      {"measurement": "remaining activity at 10 µM", "setting": "ALK(h); batch_name=ASAP-0011446-002", "result": 99, "unit": "%"},
      {"measurement": "remaining activity at 10 µM", "setting": "Abl(h); batch_name=ASAP-0011446-002", "result": 76, "unit": "%"},
      {"measurement": "remaining activity at 10 µM", "setting": "NEK2(h); batch_name=ASAP-0011446-002", "result": 98, "unit": "%"},
      {"measurement": "remaining activity at 10 µM", "setting": "CDK9/cyclin T1(h); batch_name=ASAP-0011446-002", "result": 57, "unit": "%"},
      {"measurement": "remaining activity at 10 µM", "setting": "eEF-2K(h); batch_name=ASAP-0011446-002", "result": 98, "unit": "%"}
    ]},
    {"smiles": "C[C@H](C(=O)O)[C@@H](NC(=O)c1ncnc2[nH]ccc12)c1ccc(Br)cc1", "note": "[ASAP-0014722]", "values": [
      {"measurement": "remaining activity at 10 µM", "setting": "Rsk1(h); batch_name=ASAP-0014722-002", "result": 88, "unit": "%"},
      {"measurement": "remaining activity at 10 µM", "setting": "JAK2(h); batch_name=ASAP-0014722-002", "result": 99, "unit": "%"},
      {"measurement": "remaining activity at 10 µM", "setting": "Rse(h); batch_name=ASAP-0014722-002", "result": 87, "unit": "%"},
      {"measurement": "remaining activity at 10 µM", "setting": "ALK(h); batch_name=ASAP-0014722-002", "result": 99, "unit": "%"},
      {"measurement": "remaining activity at 10 µM", "setting": "Abl(h); batch_name=ASAP-0014722-002", "result": 97, "unit": "%"},
      {"measurement": "remaining activity at 10 µM", "setting": "NEK2(h); batch_name=ASAP-0014722-002", "result": 101, "unit": "%"},
      {"measurement": "remaining activity at 10 µM", "setting": "CDK9/cyclin T1(h); batch_name=ASAP-0014722-002", "result": 103, "unit": "%"},
      {"measurement": "remaining activity at 10 µM", "setting": "eEF-2K(h); batch_name=ASAP-0014722-002", "result": 85, "unit": "%"}
    ]},
    {"smiles": "COc1ccc([C@H](Cc2nnn[nH]2)NC(=O)c2ncnc3[nH]ccc23)cc1", "note": "[ASAP-0015381]", "values": [
      {"measurement": "remaining activity at 10 µM", "setting": "Rsk1(h); batch_name=ASAP-0015381-001", "result": 102, "unit": "%"},
      {"measurement": "remaining activity at 10 µM", "setting": "JAK2(h); batch_name=ASAP-0015381-001", "result": 116, "unit": "%"},
      {"measurement": "remaining activity at 10 µM", "setting": "Rse(h); batch_name=ASAP-0015381-001", "result": 100, "unit": "%"},
      {"measurement": "remaining activity at 10 µM", "setting": "ALK(h); batch_name=ASAP-0015381-001", "result": 106, "unit": "%"},
      {"measurement": "remaining activity at 10 µM", "setting": "Abl(h); batch_name=ASAP-0015381-001", "result": 102, "unit": "%"},
      {"measurement": "remaining activity at 10 µM", "setting": "NEK2(h); batch_name=ASAP-0015381-001", "result": 106, "unit": "%"},
      {"measurement": "remaining activity at 10 µM", "setting": "CDK9/cyclin T1(h); batch_name=ASAP-0015381-001", "result": 109, "unit": "%"},
      {"measurement": "remaining activity at 10 µM", "setting": "eEF-2K(h); batch_name=ASAP-0015381-001", "result": 96, "unit": "%"}
    ]}
  ]
}
